Counter-ions that a name gives are not always drawn. Each block holds one compound with its values, some of them ahead of it.
Experiments:
[1] = tested on: Jurkat cells; test: Cell cycle analysis (Guava Cell Cycle Reagent); assay type: cell-based; conditions: IC50 concentration, 24 h, flow histogram
Procedure: Our findings are consistent with the literature data that many ICs predominantly affect the G2 and S phases, reducing them.
The incubation time of ionic liquids with cells was 24 h. […] It is listed because the picture prints the label with values. / The fit parameters printed in each histogram (RMS, Mean G1, Mean G2, G2/G1, CV G1, CV G2) were left out as statistics of the cell-cycle model.

[2] = tested on: HEK293; test: In vitro cytotoxicity, IC50 by flow cytometry (Guava ViaCount); assay type: cell-based; conditions: conditionally normal
Procedure: (§1) Human cancer cell line HeLa, HL60, A2780 was obtained from the HPA Culture Collections (Salisbury, UK). Cells (Jurkat, K562, U937, Hek293, Fibroblasts) were purchased from Russian Cell Culture Collection (Institute of Cytology of the Russian Academy of Sciences, […], Russia) and cultured according to standard protocols and sterile technique. […] Cells were maintained in RPMI 1640 (Jurkat, K562, U937, HL60) (Gibco, Billings, MT, USA) supplemented with […], 10% FBS (Sigma) and 100 units/mL penicillin–streptomycin (Sigma). All types of cells were grown in an atmosphere of 5% CO2 at 37 °C. The cells were subcultured at 2–3 days intervals. Cells were then seeded in 24-well plates at 5 × 10^4 cells per well and incubated overnight. Jurkat, K562, U937, HL60 cells were subcultured at 2-day intervals with a seeding density of 1 × 10^5 cells per 24-well plates in RPMI with 10% FBS.
(§2) The antitumor activity of the synthesized ionic compounds was initially assessed in vitro on Jurkat, K562, U937, HL60, HEK293, A2780 cell lines, including the determination of IC50 by flow cytometry involving Guava ViaCount (Millipore) reagent kits.

[3] = tested on: Jurkat; test: as above; assay type: cell-based; conditions: Jurkat cells
Procedure: as §1, §2

[4] = tested on: K562; test: as above; assay type: cell-based
Procedure: as §1, §2

[5] = tested on: U937; test: as above; assay type: cell-based
Procedure: as §1, §2

[6] = tested on: A2780; test: as above; assay type: cell-based, human
Procedure: as §1, §2

[7] = tested on: HL60; test: as above; assay type: cell-based, human
Procedure: as §1, §2

[8] = tested on: Chk1; test: Luminex xMAP DNA Damage/Genotoxicity panel, phosphorylated Chk1; assay type: cell-based; conditions: Jurkat cells; 12a 0.006 µM, 13d 0.004 µM per 100,000 cells; 6 and 12 h
Text: [Worded in the source for another target; used here, by the source, with some conditions changed.] (§3) The determination of proteins in a cell by Luminex xMAP technology is characterized by the presence of multiplex multiparametric analysis with the simultaneous use of a multiplex of antibodies with a fluorescent label and magnetic particles, thereby resulting in an increase in the sensitivity of the technique and expansion of the dynamic range, as well as an increase in detection accuracy. Luminex XMAP technology provides a simultaneous analysis of a sufficient number of different proteins in various types of biological fluids (plasma, serum, cerebrospinal fluid, follicular fluid, tissue lysate, etc.) and in cell supernatants. Consequently, multiplexing saves time/costs and ensures the same conditions for the measurements, which is essential for significance and statistical processing.
(§4) Magnetic microspheres (stained inside with two fluorescent dyes) in combination with monoclonal antibodies against the analyzed analytes (the main intracellular kinases in this case) are incubated with the samples and standards; then, the samples/standards are incubated with biotinylated monoclonal antibodies against the analyzed analytes and, finally, with a solution of streptavidin–phycoerythrin. The Luminex technology identifies the different proteins present in each well and converts the mean fluorescence intensity (MFI) of each measured cytokine to pg/mL using software and standard curves. This approach is successfully applied in fundamental and clinical research. In this work, we analyzed various protein analytes that make up the phosphorylated and non-phosphorylated fractions of the main kinases in the signaling pathways: CREB, JNK, NFkB, p38, ERK1/2, Akt, p70S6K, STAT3, STAT5 proteins in six samples of lysates of Jurkat tumor cells by Luminex technology (MILLIPLEX® MAP 9-Plex Multi-Pathway 9-plex Magnetic Bead Kit).

[9] = tested on: Chk2; test: Luminex xMAP DNA Damage/Genotoxicity panel, phosphorylated Chk2; assay type: cell-based; conditions: Jurkat cells; 12a 0.006 µM, 13d 0.004 µM per 100,000 cells; 6 and 12 h
Text: [Worded in the source for another target; used here, by the source, with some conditions changed.] as §3, §4

[10] = tested on: γH2AX; test: Luminex xMAP DNA Damage/Genotoxicity panel, phosphorylated γH2AX; assay type: cell-based; conditions: Jurkat cells; first six hours of incubation
Text: as §3, with “processing. Simultaneous measurement of cytokines by bead multiplex analysis has certain similarities with ELISA, in particular the use of antibodies, but has a fundamental difference in using magnetic fluorescent beads coupled to antikinase monoclonal antibodies.” for “processing.”
as §4
Phosphorylation of histone H2AX at serine 139 (γH2AX) is an early stage in the cellular response to DNA damage, when the damage brings about formation of a double-strand break (DSB). γH2AX foci, considered as markers of DNA double-strand breaks, are easily detected by immunofluorescence microscopy and flow cytometry. The two main signaling pathways ATM/Chk2 and ATR/Chk1 respond to DNA damage and both lead to H2AX phosphorylation, but the ATR/Chk1 pathway causes γH2AX formation to a much lesser extent. The role of γH2AX in DNA repair is also discussed.
Incubation time with the test compounds was 6 and 12 h. p < 0.001 (***).

[11] = tested on: ATR kinase; test: Luminex xMAP DNA Damage/Genotoxicity panel, ATR kinase content; assay type: cell-based; conditions: Jurkat cells; 12a 0.006 µM, 13d 0.004 µM per 100,000 cells; 6 and 12 h
[12] = tested on: Jurkat cells; test: Apoptosis/necrosis induction (Annexin V Alexa Fluor488, 7AAD staining); assay type: cell-based; conditions: compound at IC50 concentration, incubation 2 h
Text: Multiparametric evaluation of marker molecules, along with the detection of damage to the mitochondrial membrane, makes it possible to clearly determine the type of cell death. The method of cell staining with three different dyes (Annexin V Alexa Fluor488, 7AAD and MitoSense Red) provides simultaneous specification of various aspects of the state of the cell membrane, the state of DNA and the viability of mitochondria; together, it is a reliable sign of intrinsic and mitochondrial apoptosis pathway. Normal cells with intact mitochondrial membranes have high MitoSense Red fluorescence, while cells with decoupled oxidation and phosphorylation have much lower fluorescence. […]
Figure 1 The ratio of the level of mito-damage and the level of apoptosis in Jurkat cells of ionic compounds based on ursolic, oleanolic and betulinic acids.

[13] = tested on: mitochondria of Jurkat tumor cells; test: Mitochondrial damage (MitoSense Red staining); assay type: cell-based; conditions: compound at IC50 concentration, incubation 2 h
[14] = Homo sapiens, HEK293, HEK293 cells
[15] = Homo sapiens, U-937, U937 cells
[16] = Homo sapiens, A2780, A2780 cells
[17] = Homo sapiens, HL-60, HL60 cells

Compound: N.N.[Cl][Pt][Cl] [cisplatin, reference compound]
Freq Sub-G1 (hypodiploid cell population) [1]: 32.27%

melting point: 123 to 125 °C
Compound: CC(=O)O[C@H]1CC[C@@]2(C)C(CC[C@]3(C)C2CC=C2C4CC(C)(C)CC[C@]4(C(=O)OCCCCCCOC(=O)c4cncn4C)CC[C@]23C)C1(C)C (stereo partly drawn) [compound 4, 6-{[(1-Methyl-1H-imidazol-5-yl)carbonyl]oxy}hexyl (3β)-3-(acetyloxy)olean-12-en-28-oate]
IC50 [2, 14]: > 4000 nM | IC50 ([3]; Homo sapiens, Jurkat): > 4000 nM | IC50 ([4]; Homo sapiens, K562, K562 cells): > 4000 nM | IC50 [5, 15]: > 4000 nM | IC50 [6, 16]: > 4000 nM | IC50 [7, 17]: > 4000 nM

Compound: CN[C@@H]1C[C@H]2O[C@@](C)([C@@H]1OC)n1c3ccccc3c3c4c(c5c6ccccc6n2c5c31)C(=O)NC4 [staurosporine]
content of phosphorylated checkpoint kinase Chk1 [8]: significantly decreases | content of phosphorylated checkpoint kinase Chk2 [9]: significantly decreases | increase in the phosphorylated γH2AX histone fraction [10]: ~9000 times

melting point: 151 to 153 °C
Compound: CC(=O)O[C@H]1CC[C@@]2(C)C(CC[C@]3(C)C2CC=C2C4CC(C)(C)CC[C@]4(C(=O)OCCCCCCn4cc[n+](C)c4)CC[C@]23C)C1(C)C (stereo partly drawn) (as salt: bromide) [9d, 1-(6-{[(3β)-3-Acetyloxyolean-12-en-28-oyl]oxy}hexyl)-3-methylimidazolium bromide]

Compound: N#CC(C#N)=NNc1cccc(Cl)c1 [CCCP]
content of phosphorylated checkpoint kinase Chk1 [8]: significantly decreases | content of phosphorylated checkpoint kinase Chk2 [9]: significantly decreases

Compound: CO[C@H]1C[C@@H]2CC[C@@H](C)[C@@](O)(O2)C(=O)C(=O)N2CCCC[C@H]2C(=O)O[C@H]([C@H](C)C[C@@H]2CC[C@@H](O)[C@H](OC)C2)CC(=O)[C@H](C)/C=C(\C)[C@@H](O)[C@@H](OC)C(=O)[C@H](C)C[C@H](C)/C=C/C=C/C=C/1C [rapamycin, reference compound]
level of ATR kinase [11]: elevated levels | content of phosphorylated checkpoint kinase Chk1 [8]: significantly decreases | content of phosphorylated checkpoint kinase Chk2 [9]: significantly decreases | increase in the phosphorylated γH2AX histone fraction [10]: ~9000 times

Compound: C[n+]1ccn(CCCCCCOC(=O)[C@]23CCC(C)(C)CC2C2=CCC4[C@@]5(C)CC[C@H](O)C(C)(C)C5CC[C@@]4(C)[C@]2(C)CC3)c1.O=C([O-])c1ccccc1O (stereo partly drawn) [13f, 1-(6-{[(3β)-3-Hydroxyolean-12-en-28-oyl]oxy}hexyl)-3-methylimidazolium Salicylate]
IC50 ([2]; HEK293 cells): 37 ± 3 nM | IC50 [3]: 8 ± 1 nM | IC50 ([4]; K562 cells): 13 ± 1 nM | IC50 ([5]; U937 cells): 11 ± 1 nM | IC50 ([6]; A2780 cells): 18 ± 2 nM | IC50 ([7]; HL60 cells): 3 ± 1 nM | Apoptosis (%) Early [12]: 0.17% | Apoptosis (%) Late [12]: 35.95% | Apoptosis (%) Necrosis [12]: 11.07% | Mito-Damage (%) [13]: 49.43% | Freq Sub-G1 (hypodiploid cell population) [1]: 9.83%

melting point: 134 to 136 °C
Compound: CC(=O)O[C@H]1CC[C@@]2(C)C(CC[C@]3(C)C2CC=C2C4CC(C)(C)CC[C@]4(C(=O)OCCCCCCOC(=O)c4nccn4C)CC[C@]23C)C1(C)C (stereo partly drawn) [compound 3, 6-{[(1-Methyl-1H-imidazol-2-yl)carbonyl]oxy}hexyl (3β)-3-(acetyloxy)olean-12-en-28-oate]
IC50 [2, 14]: > 4000 nM | IC50 ([3]; Homo sapiens, Jurkat): > 4000 nM | IC50 ([4]; Homo sapiens, K562, K562 cells): > 4000 nM | IC50 [5, 15]: > 4000 nM | IC50 [6, 16]: > 4000 nM | IC50 [7, 17]: > 4000 nM

melting point: 148 to 150 °C
Compound: C[n+]1ccn(CCCCOC(=O)[C@]23CCC(C)(C)CC2C2=CCC4[C@@]5(C)CC[C@H](O)C(C)(C)C5CC[C@@]4(C)[C@]2(C)CC3)c1 (stereo partly drawn) (as salt: bromide) [9b, 1-(4-{[(3β)-3-Hydroxyolean-12-en-28-oyl]oxy}butyl)-3-methylimidazolium bromide]

Compound: CC(C)[C@@H]1NC(=O)[C@H](C)OC(=O)[C@@H](C(C)C)NC(=O)[C@@H](C(C)C)OC(=O)[C@H](C(C)C)NC(=O)[C@H](C)OC(=O)[C@@H](C(C)C)NC(=O)[C@@H](C(C)C)OC(=O)[C@H](C(C)C)NC(=O)[C@H](C)OC(=O)[C@@H](C(C)C)NC(=O)[C@@H](C(C)C)OC1=O [valinomycin]
level of ATR kinase [11]: elevated levels | content of phosphorylated checkpoint kinase Chk1 [8]: significantly decreases | content of phosphorylated checkpoint kinase Chk2 [9]: significantly decreases

Compound: C=C(C)[C@@H]1CC[C@]2(C(=O)OCCCCCCn3cc[n+](C)c3)CC[C@]3(C)C(CCC4[C@@]5(C)CC[C@H](O)C(C)(C)C5CC[C@]43C)C12 (stereo partly shown) [11c]
IC50 [2, 14]: 54 ± 5 nM | IC50 ([3]; Homo sapiens, Jurkat): 39 ± 4 nM | IC50 ([4]; Homo sapiens, K562, K562 cells): 21 ± 1 nM | IC50 [5, 15]: 19 ± 1 nM | IC50 [6, 16]: 36 ± 3 nM | IC50 [7, 17]: 6 ± 1 nM | Apoptosis (%) Early [12]: 15.59% | Apoptosis (%) Late [12]: 1.82% | Apoptosis (%) Necrosis [12]: 4.37% | Mito-Damage (%) [13]: 25.72%

Compound: 1-Hexyl-3-methylimidazolium (3β)-3-hydroxyolup-20(29)-en28-oylate [17c]
IC50 ([2]; HEK293 cells): 293 ± 31 nM | IC50 [3]: 29 ± 2 nM | IC50 ([4]; K562 cells): 56 ± 3 nM | IC50 ([5]; U937 cells): 54 ± 3 nM | IC50 ([6]; A2780 cells): 113 ± 10 nM | IC50 ([7]; HL60 cells): 26 ± 3 nM | Apoptosis (%) Early [12]: 3.97% | Apoptosis (%) Late [12]: 1.70% | Apoptosis (%) Necrosis [12]: 2.82% | Mito-Damage (%) [13]: 8.71%

Compound: C[C@@H]1CC[C@]2(C(=O)OCCn3cc[n+](C)c3)CC[C@]3(C)C(=CCC4[C@@]5(C)CC[C@H](O)C(C)(C)C5CC[C@]43C)C2[C@H]1C (stereo partly drawn) [10a, 1-(2-{[(3β)-3-Hydroxyurs-12-en-28-oyl]oxy}ethyl)-3-methylimidazolium bromide]
IC50 [2, 14]: 91 ± 9 nM | IC50 ([3]; Homo sapiens, Jurkat): 17 ± 1 nM | IC50 ([4]; Homo sapiens, K562, K562 cells): 31 ± 2 nM | IC50 [5, 15]: 27 ± 2 nM | IC50 [6, 16]: 59 ± 5 nM | IC50 [7, 17]: 8 ± 1 nM | Apoptosis (%) Early [12]: 10.43% | Apoptosis (%) Late [12]: 5.01% | Apoptosis (%) Necrosis [12]: 0.71% | Mito-Damage (%) [13]: 11.01%

Source: paper PMC9913425, “Pentacyclic Triterpenoids-Based Ionic Compounds: Synthesis, Study of Structure–Antitumor Activity Relationship, Effects on Mitochondria and Activation of Signaling Pathways of Proliferation, Genome Reparation and Early Apoptosis” (Cancers, 2023)
